Results on twelve molecules are retold here after patent US20220298163A1, “BTK INHIBITORS WITH IMPROVED DUAL SELECTIVITY” (BEIGENE, LTD., priority 2017, published 2022).

In one assay the target is EGFR (Homo sapiens, UniProt P00533). In words: Biochemical kinase selectivity: IC50 determination of EGFR. To be noted: for IC50: TR-FRET, 20 μM ATP; for Fold of EGFR/Btk: ratio of IC50 values.
Assay [1] has as its target T1, Btk kinase (aa2-659, Carna Biosciences) (Homo sapiens, UniProt Q06187).
T1 construct: purchased Carna Biosciences
In words: Btk kinase enzymatic assay (TR-FRET). It is filed as biochemical. To be noted: for IC50: TR-FRET, 30 μM ATP, compound incubated with kinase 60 minutes.

Assay [2] has as its target T2, phosphorylated Btk at Tyr223 (Homo sapiens, UniProt Q06187).
T2 construct: determine the endogenous levels of phosphorylated Btk at Tyr223; endogenous in cells; host or cells: Ramos cells (CRL-1596, ATCC)
Description: Btk pY223 cellular assay (HTRF, Ramos cells). It is filed as cell-based. To be noted: compound 3 hours, pervanadate or Na3VO4 stimulation, read-out: IC50 (nM) in cell Btk pY223.
Description: Btk pY223 cellular assay is an HTRF based assay intended to determine the endogenous levels of phosphorylated Btk at Tyr223.
Briefly, Ramos cells were serum starved in 0.5% FBS-containing RPMI1640 overnight. The cells were then incubated with interested compounds at various concentrations in a CO2 incubator for 3 hours. After the incubation, cells were stimulated with 1 mM pervanadate (PV) or Na3VO4 (OV) for 20 min. Then, the cells were collected and lysed with 1× lysis buffer at RT for 10 min (4× lysis buffer supplied in the kit). 1× antibody mix was prepared by diluting anti-Btk-d2 and anti-pBtk-K in detection buffer (supplied in the kit). […] After mixing gently and spinning briefly, the plate was sealed up and kept in dark at RT for 18 hours. […] IC50 values were calculated with GraphPad Prism software using the sigmoidal dose-response function.

The target of a further assay is T3, Tec (Homo sapiens, UniProt P42680).
T3 sequence (P42680 1-631): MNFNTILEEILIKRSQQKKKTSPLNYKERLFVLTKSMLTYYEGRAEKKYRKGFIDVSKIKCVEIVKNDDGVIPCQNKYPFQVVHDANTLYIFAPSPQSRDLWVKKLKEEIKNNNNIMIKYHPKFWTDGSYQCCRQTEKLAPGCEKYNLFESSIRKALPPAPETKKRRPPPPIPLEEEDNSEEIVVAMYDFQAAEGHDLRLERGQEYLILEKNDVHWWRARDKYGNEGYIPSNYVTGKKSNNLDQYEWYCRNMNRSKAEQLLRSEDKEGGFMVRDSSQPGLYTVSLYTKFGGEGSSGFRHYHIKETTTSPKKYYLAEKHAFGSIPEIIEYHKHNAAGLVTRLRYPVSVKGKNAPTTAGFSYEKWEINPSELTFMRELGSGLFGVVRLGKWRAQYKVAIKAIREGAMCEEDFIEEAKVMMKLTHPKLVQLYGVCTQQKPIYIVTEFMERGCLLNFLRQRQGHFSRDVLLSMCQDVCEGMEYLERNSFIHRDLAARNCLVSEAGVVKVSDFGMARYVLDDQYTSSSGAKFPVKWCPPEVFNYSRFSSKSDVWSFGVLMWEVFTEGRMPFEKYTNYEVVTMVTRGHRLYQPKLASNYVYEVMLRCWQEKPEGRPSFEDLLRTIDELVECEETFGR
In words: Biochemical kinase selectivity: IC50 determination of Tec. The following applies: for IC50: TR-FRET, 280 μM ATP; for Fold of Tec/Btk: ratio of IC50 values.

T1 sequence (Q06187 2-659): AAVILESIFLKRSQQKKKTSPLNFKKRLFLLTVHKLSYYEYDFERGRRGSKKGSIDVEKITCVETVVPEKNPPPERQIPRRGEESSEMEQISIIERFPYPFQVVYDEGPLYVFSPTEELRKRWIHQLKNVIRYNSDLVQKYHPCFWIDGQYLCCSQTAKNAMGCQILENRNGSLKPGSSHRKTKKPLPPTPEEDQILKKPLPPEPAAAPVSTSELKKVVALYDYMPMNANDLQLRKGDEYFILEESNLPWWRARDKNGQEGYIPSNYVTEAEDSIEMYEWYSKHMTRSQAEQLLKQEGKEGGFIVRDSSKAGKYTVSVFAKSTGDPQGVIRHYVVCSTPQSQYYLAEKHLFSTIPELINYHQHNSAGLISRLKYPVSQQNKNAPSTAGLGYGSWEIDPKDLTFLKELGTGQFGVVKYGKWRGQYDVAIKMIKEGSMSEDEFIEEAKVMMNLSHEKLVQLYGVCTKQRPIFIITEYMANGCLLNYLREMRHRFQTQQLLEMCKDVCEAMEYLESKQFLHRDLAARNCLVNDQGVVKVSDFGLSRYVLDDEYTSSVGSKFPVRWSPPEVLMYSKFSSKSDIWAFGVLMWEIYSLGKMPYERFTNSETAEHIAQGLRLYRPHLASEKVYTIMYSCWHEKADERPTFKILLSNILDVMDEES
T2 sequence (Q06187 whole entry): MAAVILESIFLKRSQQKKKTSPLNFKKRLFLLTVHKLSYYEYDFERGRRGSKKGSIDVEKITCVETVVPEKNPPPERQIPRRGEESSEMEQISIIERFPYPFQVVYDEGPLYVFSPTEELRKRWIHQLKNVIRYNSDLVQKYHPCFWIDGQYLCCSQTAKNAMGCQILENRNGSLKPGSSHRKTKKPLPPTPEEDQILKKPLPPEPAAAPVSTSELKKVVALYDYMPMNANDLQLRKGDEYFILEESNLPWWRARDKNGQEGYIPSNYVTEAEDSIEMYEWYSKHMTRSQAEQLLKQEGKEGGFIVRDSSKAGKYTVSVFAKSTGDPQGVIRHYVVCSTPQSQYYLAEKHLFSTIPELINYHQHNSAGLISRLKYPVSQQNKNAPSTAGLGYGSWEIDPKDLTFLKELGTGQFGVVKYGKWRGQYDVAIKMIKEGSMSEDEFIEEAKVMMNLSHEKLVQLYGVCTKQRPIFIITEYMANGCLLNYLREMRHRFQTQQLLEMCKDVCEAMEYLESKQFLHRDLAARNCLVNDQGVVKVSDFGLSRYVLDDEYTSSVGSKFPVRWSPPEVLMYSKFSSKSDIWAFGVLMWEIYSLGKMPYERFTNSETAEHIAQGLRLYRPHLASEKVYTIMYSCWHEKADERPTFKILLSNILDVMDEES
EGFR, sequence (P00533 25-1210): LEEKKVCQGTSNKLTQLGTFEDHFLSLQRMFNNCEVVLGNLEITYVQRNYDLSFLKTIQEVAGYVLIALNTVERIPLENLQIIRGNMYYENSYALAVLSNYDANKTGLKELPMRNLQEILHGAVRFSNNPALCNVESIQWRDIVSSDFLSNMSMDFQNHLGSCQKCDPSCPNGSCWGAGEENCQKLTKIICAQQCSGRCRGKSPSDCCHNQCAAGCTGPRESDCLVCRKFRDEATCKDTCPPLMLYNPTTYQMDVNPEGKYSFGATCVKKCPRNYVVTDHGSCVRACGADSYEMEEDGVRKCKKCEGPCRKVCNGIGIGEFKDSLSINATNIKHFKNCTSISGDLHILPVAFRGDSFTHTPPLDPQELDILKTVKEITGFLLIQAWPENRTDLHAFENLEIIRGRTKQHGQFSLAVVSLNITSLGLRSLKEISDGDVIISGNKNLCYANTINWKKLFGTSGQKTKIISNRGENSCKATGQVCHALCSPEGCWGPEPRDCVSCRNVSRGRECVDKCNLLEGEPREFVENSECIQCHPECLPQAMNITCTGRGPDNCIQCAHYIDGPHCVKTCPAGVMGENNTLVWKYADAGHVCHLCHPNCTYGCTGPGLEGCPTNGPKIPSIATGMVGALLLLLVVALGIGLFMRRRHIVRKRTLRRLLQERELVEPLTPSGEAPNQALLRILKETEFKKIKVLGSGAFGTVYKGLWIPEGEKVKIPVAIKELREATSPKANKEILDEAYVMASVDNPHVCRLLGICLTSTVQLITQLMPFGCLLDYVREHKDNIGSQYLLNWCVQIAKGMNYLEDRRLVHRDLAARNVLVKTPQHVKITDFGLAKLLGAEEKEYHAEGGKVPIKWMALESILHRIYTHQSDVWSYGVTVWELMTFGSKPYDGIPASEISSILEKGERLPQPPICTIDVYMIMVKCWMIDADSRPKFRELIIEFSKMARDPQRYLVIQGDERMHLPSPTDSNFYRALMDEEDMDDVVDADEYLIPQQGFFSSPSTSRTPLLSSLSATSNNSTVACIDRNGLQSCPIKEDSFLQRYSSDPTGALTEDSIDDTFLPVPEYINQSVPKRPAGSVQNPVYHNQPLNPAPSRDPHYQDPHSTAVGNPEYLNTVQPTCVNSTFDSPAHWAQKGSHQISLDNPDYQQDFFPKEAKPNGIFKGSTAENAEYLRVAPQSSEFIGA

In the case of `C=CC(=O)N1CCC(C2CCNc3c(C(N)=O)c(-c4cc(C)c(Br)c(C)c4)nn32)CC1` (stereo not drawn) [Example A20, 7-(1-acryloylpiperidin-4-yl)-2-(4-bromo-3,5-dimethylphenyl)-4,5,6,7-tetrahydropyrazolo[1,5-a]pyrimidine-3-carboxamide], at EGFR, inhibition was half-maximal at 496 nM (IC50) and the “Fold of EGFR/Btk” value was determined as 150 fold. In assay [1], the “affinity / inhibitory activity for Btk (in words)” value (from here on “affinity / inhibitory activity”) is “high affinity for Btk” and the midpoint of inhibition, the IC50, lay at 3.3 nM. For the same molecule, the IC50 in assay [2] is 143 nM. Moreover, on Tec, the IC50 worked out at 352 nM and the “Fold of Tec/Btk” value is recorded as 107 fold.
As for `C=CC(=O)N1CCC(C2CCNc3c(C(N)=O)c(-c4cc(OC)c(C5CC5)c(OCC)c4)nn32)CC1` (stereo not drawn) [Example A33, 7-(1-acryloylpiperidin-4-yl)-2-(4-cyclopropyl-3-ethoxy-5-methoxyphenyl)-4,5,6,7-tetrahydropyrazolo[1,5-a]pyrimidine-3-carboxamide], the IC50 against EGFR was 9390 nM; in assay [1], 2.7 nM; in assay [2], 42.9 nM; on Tec, 499 nM. For the same molecule, the “Fold of EGFR/Btk” value at EGFR was 3479 fold. Also, the “affinity / inhibitory activity” value in assay [1] is recorded as “high affinity for Btk”. The “Fold of Tec/Btk” value at Tec is 185 fold.
As for `C=CC(=O)N1CCC(C2CCNc3c(C(N)=O)c(-c4cc(C)c(C)c(OC)c4)nn32)CC1` (stereo not drawn) [Example A34, 7-(1-acryloylpiperidin-4-yl)-2-(3-methoxy-4,5-dimethylphenyl)-4,5,6,7-tetrahydropyrazolo[1,5-a]pyrimidine-3-carboxamide], the IC50 at EGFR was 405 nM; in assay [1], 1.8 nM; in assay [2], 41.8 nM; at Tec, 207 nM. The “Fold of EGFR/Btk” value on EGFR came to 225 fold. Besides, in assay [1], the “affinity / inhibitory activity” value was “high affinity for Btk”. In addition, the “Fold of Tec/Btk” value at Tec was found to be 115 fold.
Turning to `C=CC(=O)N1CCC(C2CCNc3c(C(N)=O)c(-c4cc(Cl)c(C)c(OC)c4)nn32)CC1` (stereo not drawn) [Example A35, 7-(1-acryloylpiperidin-4-yl)-2-(3-chloro-5-methoxy-4-methylphenyl)-4,5,6,7-tetrahydropyrazolo[1,5-a]pyrimidine-3-carboxamide], the IC50 on EGFR worked out at 1150 nM; in assay [1] it was 2.3 nM; in assay [2], 65 nM; on Tec it was 174 nM. Moreover, at EGFR, the “Fold of EGFR/Btk” value is listed as 500 fold. The “Fold of Tec/Btk” value at Tec is listed as 75.6 fold.
For `C=CC(=O)N1CCC(C2CCNc3c(C(N)=O)c(-c4cc(Cl)c(C5CC5)c(OC)c4)nn32)CC1` (stereo not drawn) [Example A36, 7-(1-acryloylpiperidin-4-yl)-2-(3-chloro-4-cyclopropyl-5-methoxyphenyl)-4,5,6,7-tetrahydropyrazolo[1,5-a]pyrimidine-3-carboxamide], on EGFR, half-maximal inhibition (IC50) was put at 2570 nM and the “Fold of EGFR/Btk” value was determined as 2339 fold. Also, in assay [1], the “affinity / inhibitory activity” value is recorded as “high affinity for Btk” and the IC50 is 1.1 nM. In addition, the IC50 in assay [2] is 50.5 nM. For the same molecule, on Tec, the IC50 stood at 137 nM and the “Fold of Tec/Btk” value was 125 fold.
For the molecule `C=CC(=O)N1CCC(C2CCNc3c(C(N)=O)c(-c4cc(OC)c(C(F)(F)F)c(OC)c4)nn32)CC1` (stereo not drawn) [Example A38, 7-(1-acryloylpiperidin-4-yl)-2-(3,5-dimethoxy-4-(trifluoromethyl)phenyl)-4,5,6,7-tetrahydropyrazolo[1,5-a]pyrimidine-3-carboxamide], the IC50 turned out to be 2250 nM on EGFR, 2.8 nM in assay [1], 36.7 nM in assay [2] and 264 nM against Tec. In addition, the “Fold of EGFR/Btk” value at EGFR was determined as 803 fold. In addition, the “Fold of Tec/Btk” value on Tec came out at 94 fold.
On to `C=CC(=O)N1CCC(C2CCNc3c(C(N)=O)c(-c4cc(OC)c(/C=C/c5ccccc5)c(OC)c4)nn32)CC1` (stereo not drawn) [Example A41, (E)-7-(1-acryloylpiperidin-4-yl)-2-(3,5-dimethoxy-4-styrylphenyl)-4,5,6,7-tetrahydropyrazolo[1,5-a]pyrimidine-3-carboxamide], for which the IC50 worked out at 1510 nM on EGFR, 3.3 nM in assay [1], 66.8 nM in assay [2] and 101 nM at Tec. The “Fold of EGFR/Btk” value on EGFR amounted to 458 fold. In addition, the “Fold of Tec/Btk” value on Tec came out at 31 fold.
Turning to `C=CC(=O)N1CCC(C2CCNc3c(C(N)=O)c(-c4cc(OC)c(C(C)O)c(OC)c4)nn32)CC1` (stereo not drawn) [Example A46, 7-(1-acryloylpiperidin-4-yl)-2-(4-(1-hydroxyethyl)-3,5-dimethoxyphenyl)-4,5,6,7-tetrahydropyrazolo[1,5-a]pyrimidine-3-carboxamide], on EGFR, the half-maximal inhibitory concentration (IC50) was found to be 3810 nM and the “Fold of EGFR/Btk” value came out at 646 fold. Further, in assay [1], the “affinity / inhibitory activity” value was “high affinity for Btk” and the IC50 amounted to 5.9 nM. Further, the concentration for half-maximal inhibition (IC50) in assay [2] came to 258 nM. For the same molecule, on Tec, the IC50 was found to be 974 nM and the “Fold of Tec/Btk” value came to 165 fold.
In the case of `C#CC(=O)N1CCC(C2CCNc3c(C(N)=O)c(-c4cc(OC)c(C)c(OC)c4)nn32)CC1` (stereo not drawn) [Example A50, 2-(3,5-dimethoxy-4-methylphenyl)-7-(1-propioloylpiperidin-4-yl)-4,5,6,7-tetrahydropyrazolo[1,5-a]pyrimidine-3-carboxamide], the IC50 was 599 nM against EGFR, 0.34 nM in assay [1], 12.3 nM in assay [2] and 3.2 nM against Tec. The “Fold of EGFR/Btk” value at EGFR stood at 1762 fold. Further, at Tec, the “Fold of Tec/Btk” value was determined as 9.4 fold.
As for `C=CC(=O)N1CC(C2CCNc3c(C(N)=O)c(-c4cc(OC)c(Br)c(OC)c4)nn32)C1` (stereo not drawn) [Example B2, 7-(1-acryloylazetidin-3-yl)-2-(4-bromo-3,5-dimethoxyphenyl)-4,5,6,7-tetrahydropyrazolo[1,5-a]pyrimidine-3-carboxamide], the IC50 at EGFR was 1750 nM; in assay [1] it was 5 nM; in assay [2] it was 45.7 nM; against Tec it was 172 nM. Besides, the “Fold of EGFR/Btk” value on EGFR was 350 fold. Also, the “Fold of Tec/Btk” value on Tec was 34 fold.
Take `C=CC(=O)N1CC(C2CCNc3c(C(N)=O)c(-c4cc(OC)c(C)c(OC)c4)nn32)C1` (stereo not drawn) [Example B3, 7-(1-acryloylazetidin-3-yl)-2-(3,5-dimethoxy-4-methylphenyl)-4,5,6,7-tetrahydropyrazolo[1,5-a]pyrimidine-3-carboxamide]: the IC50 on EGFR was determined as 1910 nM; in assay [1], 5.9 nM; in assay [2], 93.1 nM; on Tec it was 157 nM. Also, the “Fold of EGFR/Btk” value at EGFR is given as 324 fold. In addition, on Tec, the “Fold of Tec/Btk” value came out at 27 fold.
Regarding `C=CC(=O)N1CC2CNc3c(C(N)=O)c(-c4cc(OC)c(C)c(OC)c4)nn3C2C1` (stereo not drawn) [Example C1, 7-acryloyl-2-(3,5-dimethoxy-4-methylphenyl)-5,5a,6,7,8,8a-hexahydro-4H-pyrazolo[1,5-a]pyrrolo[3,4-e]pyrimidine-3-carboxamide], the IC50 on EGFR is 536 nM; in assay [1], 3.4 nM; in assay [2], 49.6 nM; at Tec it was 380 nM. For the same molecule, on EGFR, the “Fold of EGFR/Btk” value amounted to 158 fold. Also, the “affinity / inhibitory activity” value in assay [1] was “high affinity for Btk”. The “Fold of Tec/Btk” value on Tec is recorded as 112 fold.
